Measurements: US12552785B2, “Pyrazolo[1,5-α]pyridine derivative, preparation method therefor, and composition and use thereof” (SHENZHEN ZHONGGE BIOLOGICAL TECHNOLOGY CO., LTD., priority 2020, dated 2026)
pIC50: −log10 of the molar value.

What was measured:
RET = RET (Homo sapiens, UniProt P07949); assay: HTRF method for testing the inhibitory activity of compounds against RET; assay type: biochemical; conditions: IC50 by nonlinear regression, read-out: RET kinase activity
Description: (a) In Vitro Screening Experiment-HTRF Method for Testing the Inhibitory Activity of Compounds Against RET Experimental Procedure: 1. […] 2. The test compound (5 mM stock solution) was diluted 5 folds to 1 mM with 100% dimethyl sulfoxide; the compound was diluted into 10 concentrations at an equal ratio of 1:3 in a 384-well dilution plate. 3. 0.2 μL of the serially diluted compound was added to a 384-well plate using an Echo 550 pipetting system, 2 replicate wells for each concentration, and the final concentration of dimethyl sulfoxide was 0.5% (v/v). […] 6. […] The reaction solution was centrifuged at 1000 g for 30 s, and then sealed, and incubated at room temperature for 30 min. 8. […] 10. […] 11. […] IC50 was calculated with software GraphPad 6.0 by fitting inhibition values and logarithms of compound concentrations to a nonlinear regression (dose response−variable slope).

VEGFR2 = VEGFR2 (Homo sapiens, UniProt P35968); assay: HTRF method for testing the inhibitory activity of compounds against VEGFR2; assay type: biochemical; conditions: IC50 by nonlinear regression, read-out: VEGFR2 kinase activity
VEGFR2, sequence (P35968 20-1356, species assumed): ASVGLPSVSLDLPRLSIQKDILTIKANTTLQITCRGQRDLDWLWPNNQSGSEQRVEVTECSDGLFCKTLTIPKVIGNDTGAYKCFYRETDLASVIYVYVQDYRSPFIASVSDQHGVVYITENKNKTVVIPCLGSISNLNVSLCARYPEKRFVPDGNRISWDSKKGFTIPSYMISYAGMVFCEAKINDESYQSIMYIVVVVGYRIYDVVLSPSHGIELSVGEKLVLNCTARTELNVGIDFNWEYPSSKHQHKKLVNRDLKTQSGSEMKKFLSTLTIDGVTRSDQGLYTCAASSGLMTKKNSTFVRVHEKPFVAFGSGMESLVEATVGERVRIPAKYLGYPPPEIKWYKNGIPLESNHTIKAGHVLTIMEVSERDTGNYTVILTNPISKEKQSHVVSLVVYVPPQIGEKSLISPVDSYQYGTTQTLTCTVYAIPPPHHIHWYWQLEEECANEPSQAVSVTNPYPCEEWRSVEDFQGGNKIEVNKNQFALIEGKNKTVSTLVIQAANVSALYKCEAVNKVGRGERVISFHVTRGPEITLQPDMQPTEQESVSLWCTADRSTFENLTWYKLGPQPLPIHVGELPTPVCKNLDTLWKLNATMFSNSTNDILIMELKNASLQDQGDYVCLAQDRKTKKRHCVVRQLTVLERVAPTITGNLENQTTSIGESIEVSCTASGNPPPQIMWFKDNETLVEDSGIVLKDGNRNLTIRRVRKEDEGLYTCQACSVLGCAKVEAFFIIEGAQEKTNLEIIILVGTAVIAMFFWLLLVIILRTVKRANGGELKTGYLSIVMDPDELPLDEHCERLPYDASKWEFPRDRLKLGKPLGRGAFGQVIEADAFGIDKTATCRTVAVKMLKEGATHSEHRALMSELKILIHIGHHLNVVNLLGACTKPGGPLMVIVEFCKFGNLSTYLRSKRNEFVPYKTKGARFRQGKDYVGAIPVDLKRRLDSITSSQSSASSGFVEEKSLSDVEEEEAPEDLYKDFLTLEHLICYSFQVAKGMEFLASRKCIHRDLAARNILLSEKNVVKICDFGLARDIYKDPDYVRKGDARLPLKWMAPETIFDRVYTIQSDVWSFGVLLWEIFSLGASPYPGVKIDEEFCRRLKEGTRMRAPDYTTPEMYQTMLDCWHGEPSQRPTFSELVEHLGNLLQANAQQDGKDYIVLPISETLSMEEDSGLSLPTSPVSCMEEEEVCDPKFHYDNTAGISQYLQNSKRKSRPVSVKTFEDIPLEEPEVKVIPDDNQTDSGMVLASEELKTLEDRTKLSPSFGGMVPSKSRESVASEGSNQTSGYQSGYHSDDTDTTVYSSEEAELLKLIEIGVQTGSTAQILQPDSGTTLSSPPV
Description: (b) In Vitro Screening Experiment—HTRF Method for Testing the Inhibitory Activity of Compounds Against VEGFR2 Experimental Procedure: 1. […] The test compound (5 mM stock solution) was diluted 5 folds to 1 mM with 100% dimethyl sulfoxide; the compound was diluted into 10 concentrations at an equal ratio of 1:3 in a 384-well dilution plate. 3. […] 6. […] The reaction solution was centrifuged at 1000 g for 30 s, and then sealed, and incubated at room temperature for 40 min. 8. […] 10. […] 11. […] 12. IC50 was calculated with software GraphPad 6.0 by fitting inhibition values and logarithms of compound concentrations to a nonlinear regression (dose response−variable slope).

Ba/F3-KIF5B-RET cell = target: T1, Ba/F3-KIF5B-RET cell (Homo sapiens, UniProt P07949); assay: CellTiter-Glo luminescence assay for inhibitory activity against Ba/F3-KIF5B-RET cell; assay type: cell-based; conditions: Ba/F3-KIF5B-RET cells, 72 h
T1 construct: fused on or other part: P33176 (Kinesin-1 heavy chain)
T1 sequence (P07949 whole entry, stated change not applied, the tested form may be a part): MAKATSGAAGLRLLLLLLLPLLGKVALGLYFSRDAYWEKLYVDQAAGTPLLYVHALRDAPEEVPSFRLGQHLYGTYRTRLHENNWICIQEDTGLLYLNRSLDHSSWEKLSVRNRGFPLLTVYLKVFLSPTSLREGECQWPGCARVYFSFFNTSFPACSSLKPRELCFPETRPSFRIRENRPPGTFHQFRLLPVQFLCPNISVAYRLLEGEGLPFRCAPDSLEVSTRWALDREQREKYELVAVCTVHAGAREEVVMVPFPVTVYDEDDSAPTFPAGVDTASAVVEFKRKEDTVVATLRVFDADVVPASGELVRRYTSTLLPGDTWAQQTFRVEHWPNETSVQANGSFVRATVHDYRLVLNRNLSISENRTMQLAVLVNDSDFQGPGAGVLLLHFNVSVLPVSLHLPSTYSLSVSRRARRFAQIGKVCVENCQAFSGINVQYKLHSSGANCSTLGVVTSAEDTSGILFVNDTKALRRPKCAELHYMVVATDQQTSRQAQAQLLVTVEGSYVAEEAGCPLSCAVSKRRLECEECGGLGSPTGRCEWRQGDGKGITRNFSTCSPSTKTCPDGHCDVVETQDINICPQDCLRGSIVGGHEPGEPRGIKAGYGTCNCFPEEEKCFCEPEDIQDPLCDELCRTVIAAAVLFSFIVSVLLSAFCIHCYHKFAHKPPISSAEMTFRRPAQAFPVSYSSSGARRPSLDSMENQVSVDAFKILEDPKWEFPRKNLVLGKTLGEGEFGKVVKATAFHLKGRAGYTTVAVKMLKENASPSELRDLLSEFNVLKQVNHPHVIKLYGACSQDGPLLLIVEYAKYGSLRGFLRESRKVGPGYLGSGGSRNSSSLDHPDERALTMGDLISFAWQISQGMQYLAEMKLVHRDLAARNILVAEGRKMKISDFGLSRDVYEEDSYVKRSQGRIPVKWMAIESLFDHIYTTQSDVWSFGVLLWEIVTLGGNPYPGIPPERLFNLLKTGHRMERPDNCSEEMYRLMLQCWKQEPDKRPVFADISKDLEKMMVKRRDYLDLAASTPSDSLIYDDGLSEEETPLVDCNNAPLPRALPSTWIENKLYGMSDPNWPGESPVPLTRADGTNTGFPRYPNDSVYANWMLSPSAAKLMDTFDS
From the text: (c) In Vitro Screening Experiment—CellTiter-Glo Luminescence Assay for Testing the Inhibitory Activity of Compounds Against Ba/F3-KIF5B-RET Cell Experimental Procedure: 1. The mammalian cell expression vector containing human KIF5B-RET cDNA was introduced into Ba/F3 cells using the Neon® transfection system method, and the surviving clones screened by puromycin were subjected to cell growth inhibitory function experiments and Western blotting to verify cell lines with stable and high expression of RET. 2. […] 3. The test compound (5 mM stock) was diluted 2.5 folds to 2 mM with 100% dimethyl sulfoxide; and the compound was diluted into 10 concentrations at an equal ratio of 1:3 in a 384-well dilution plate. 4. […] 6. […] 7. By fitting the data with XLFit 5.0 based on the parameters formula, the IC50 value was calculated as: Y=Bottom+(Top−Bottom)/(1+10^((Log IC50−X)*HillSlope)).

RET, sequence (P07949 29-1114): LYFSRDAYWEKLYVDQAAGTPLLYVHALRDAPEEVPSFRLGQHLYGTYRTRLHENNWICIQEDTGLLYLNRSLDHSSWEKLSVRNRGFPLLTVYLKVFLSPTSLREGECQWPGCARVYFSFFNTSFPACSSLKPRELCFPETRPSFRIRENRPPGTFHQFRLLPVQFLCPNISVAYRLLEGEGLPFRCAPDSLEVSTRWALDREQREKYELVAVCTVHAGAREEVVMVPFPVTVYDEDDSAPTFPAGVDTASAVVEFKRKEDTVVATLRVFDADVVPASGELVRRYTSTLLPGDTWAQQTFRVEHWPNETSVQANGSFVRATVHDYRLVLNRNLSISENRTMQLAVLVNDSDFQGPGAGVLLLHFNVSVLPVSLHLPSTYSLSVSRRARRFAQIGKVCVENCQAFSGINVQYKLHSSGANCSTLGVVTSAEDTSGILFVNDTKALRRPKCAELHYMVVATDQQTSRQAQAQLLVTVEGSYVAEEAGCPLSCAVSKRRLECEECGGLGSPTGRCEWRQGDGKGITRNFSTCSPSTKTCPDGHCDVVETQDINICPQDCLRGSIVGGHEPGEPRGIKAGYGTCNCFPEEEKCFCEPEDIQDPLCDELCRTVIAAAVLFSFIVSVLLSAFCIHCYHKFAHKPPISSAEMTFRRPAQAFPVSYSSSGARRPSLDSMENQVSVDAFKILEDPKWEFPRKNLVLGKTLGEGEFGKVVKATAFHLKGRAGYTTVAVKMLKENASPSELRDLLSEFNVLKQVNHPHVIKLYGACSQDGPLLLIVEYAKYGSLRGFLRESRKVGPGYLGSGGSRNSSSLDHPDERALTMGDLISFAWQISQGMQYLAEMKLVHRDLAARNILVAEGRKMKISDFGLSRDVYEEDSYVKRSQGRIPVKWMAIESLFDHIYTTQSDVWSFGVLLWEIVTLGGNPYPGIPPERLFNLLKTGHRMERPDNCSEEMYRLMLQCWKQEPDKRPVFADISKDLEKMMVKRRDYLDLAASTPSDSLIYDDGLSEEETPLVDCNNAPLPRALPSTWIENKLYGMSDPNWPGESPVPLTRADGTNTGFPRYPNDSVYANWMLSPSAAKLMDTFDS

pIC50 (RET)	pIC50 (VEGFR2)	GI50 (Ba/F3-KIF5B-RET cell) [nM]	SMILES
9.32	7.59	1.53	C[C@@H](c1ccc(-n2cc(F)cn2)nc1)N(C)c1ccc(-c2cc(OCC(C)(C)O)cn3ncc(C#N)c23)cn1 [Compound 61, (S)-4-(6-((1-(6-(4-fluoro-1H-pyrazol-1-yl)pyridin-3-yl)ethyl)(methyl)amino)pyridine-3-yl)-6-(2-hydroxy-2-methylpropoxy)pyrazolo[1,5-a]pyridine-3-carbonitrile]
9.17	7.52	13.9	CN(Cc1ccc(-n2cc(F)cn2)nc1)c1ccc(-c2cc(OCC(C)(C)O)cn3ncc(C#N)c23)cn1 [Compound 56, 4-(6-(((6-(4-fluoro-1H-pyrazol-1-yl)pyridin-3-yl)methyl)(methyl)amino)pyridin-3-yl)-6-(2-hydroxy-2-methylpropoxy)pyrazolo[1,5-a]pyridine-3-carbonitrile]
9.72	8.97	18	N#Cc1cnn2cc(OC[C@H]3CNCCO3)cc(-c3ccc(NCc4ccc(-n5cc(F)cn5)nc4)nc3)c12 [Compound 3]
9.34	8.45	10.7	C[C@H](Nc1ccc(-c2cc(OCC(C)(C)O)cn3ncc(C#N)c23)cn1)c1ccc(-n2cc(F)cn2)nc1 [Compound 2, (S)-4-(6-((1-(6-(4-fluoro-1H-pyrazol-1-yl)pyridin-3-yl)ethyl)amino)pyridin-3-yl)-6-(2-hydroxy-2-methylpropoxy)pyrazolo[1,5-a]pyridine-3-carbonitrile]
9.44	8.48	0.75	C[C@@H](c1ccc(-n2cc(F)cn2)nc1)N(C)c1ccc(-c2cc(-c3cnn(C)c3)cn3ncc(C#N)c23)cn1 [Compound 29, (S)-6-(1-methyl-1H-pyrazol-4-yl)-4-(6-((1-(6-(4-fluoro-1H-pyrazol-1-yl)pyridine-3-yl)ethyl)(methyl)amino)pyridin-3-yl)pyrazolo[1,5-a]pyridine-3-carbonitrile]
8.71	< 5.30	182	CCCOc1cc(-c2ccc(N(C)[C@@H](C)c3ccc(-n4cc(F)cn4)nc3)nc2)c2c(C#N)cnn2c1 [Compound 39, (S)-4-(6-((1-(6-(4-fluoro-1H-pyrazol-1-yl)pyridin-3-yl)ethyl)(methyl)amino)pyridine-3-yl)-6-propoxypyrazolo[1,5-a]pyridine-3-carbonitrile]
7.73	5.92	184	C[C@@H](c1ccc(-n2cc(F)cn2)cc1)N(C)c1ccc(-c2cc(OCC(C)(C)C#N)cn3ncc(C#N)c23)cn1 [Compound 17, (S)-6-(2-cyano-2-methylpropoxy)-4-(6-((1-(4-(4-fluoro-1H-pyrazol-1-yl)phenyl)ethyl)(methyl)amino)pyridin-3-yl)pyrazolo[1,5-a]pyridine-3-carbonitrile]
8.68	7.04	7.3	CC(C)(O)COc1cc(-c2ccc(NCc3ccc(N4CCCC4)nc3)nc2)c2c(C#N)cnn2c1 [Compound 10, 6-(2-hydroxy-2-methylpropoxy)-4-(6-(((6-(pyrrolidin-1-yl)pyridin-3-yl)methyl)amino)pyridine-3-yl)pyrazo[1,5-a]pyridine-3-carbonitrile]
8.88	7.66	43.8	C[C@@H](c1ccc(-n2cc(F)cn2)nc1)N(C)c1ccc(-c2cc(C#CC(C)(C)O)cn3ncc(C#N)c23)cn1 [Compound 27, (S)-4-(6-((1-(6-(4-fluoro-1H-pyrazol-1-yl)pyridin-3-yl)ethyl)(methyl)amino)pyridine-3-yl)-6-(3-hydroxy-3-methyl-1-yn-1-yl)pyrazolo[1,5-a]pyridine-3-carbonitrile]
9.25	8.13	5.14	CCn1cc(-c2cc(-c3ccc(N(C)[C@@H](C)c4ccc(-n5cc(F)cn5)nc4)nc3)c3c(C#N)cnn3c2)cn1 [Compound 38, (S)-6-(1-ethyl-1H-pyrazol-4-yl)-4-(6-((1-(6-(4-fluoro-1H-pyrazol-1-yl)pyridine-3-yl)ethyl)(methyl)amino)pyridin-3-yl)pyrazolo[1,5-a]pyridine-3-carbonitrile]
8.26	6.53	432	C#CCOc1cc(-c2ccc(N(C)[C@@H](C)c3ccc(-n4cc(F)cn4)nc3)nc2)c2c(C#N)cnn2c1 [Compound 53, (S)-4-(6-((1-(6-(4-fluoro-1H-pyrazol-1-yl)pyridin-3-yl)ethyl)(methyl)amino)pyridine-3-yl)-6-(prop-2-yn-1-yloxy)pyrazolo[1,5-a]pyridine-3-carbonitrile]
8.92	7.93	50.5	CC(Nc1ccc(-c2cc(OCC(C)(C)O)cn3ncc(C#N)c23)cn1)c1ccc(-n2cc(F)cn2)nc1 (stereo not drawn) [Compound 6]
9.09	7.13	18.1	C[C@@H](c1ccc(-n2cc(F)cn2)nc1)N(C)c1ccc(-c2cc(N3CCC(C)(O)CC3)cn3ncc(C#N)c23)cn1 [Compound 23, (S)-4-(6-((1-(6-(4-fluoro-1H-pyrazol-1-yl)pyridin-3-yl)ethyl)(methyl)amino)pyridine-3-yl)-6-(4-hydroxy-4-methylpiperidin-1-yl)pyrazolo[1,5-a]pyridine-3-carbonitrile]
9.00	7.19	5.85	C[C@@H](c1ccc(-n2cc(F)cn2)nc1)N(C)c1ccc(-c2cc(N3CC(C)(C#N)C3)cn3ncc(C#N)c23)cn1 [Compound 24]
9.38	7.39	41	C[C@@H](c1ccc(-n2cc(F)cn2)nc1)N(C)c1ccc(-c2cc(N3CCN(C)CC3)cn3ncc(C#N)c23)cn1 [Compound 19, (S)-4-(6-((1-(6-(4-fluoro-1H-pyrazol-1-yl)pyridin-3-yl)ethyl)(methyl)amino)pyridine-3-yl)-6-(4-methylpiperazin-1-yl)pyrazolo[1,5-a]pyridine-3-carbonitrile]
7.78	6.46	220	CN(Cc1ccc2ncccc2c1)c1ccc(-c2cc(OCC(C)(C)O)cn3ncc(C#N)c23)cn1 [Compound 14, 6-(2-hydroxy-2-methylpropoxy)-4-(6-(methyl(quinolin-6-ylmethyl)amino)pyridin-3-yl)pyrazolo[1,5-a]pyridine-3-carbonitrile]
8.16	6.09	396	C[C@@H](c1ccc(-n2cc(F)cn2)nc1)N(C)c1ccc(-c2cc(OCC(F)(F)F)cn3ncc(C#N)c23)cn1 [Compound 35, (S)-4-(6-((1-(6-(4-fluoro-1H-pyrazol-1-yl)pyridin-3-yl)ethyl)(methyl)amino)pyridine-3-yl)-6-(2,2,2-trifluoroethoxy)pyrazolo[1,5-a]pyridine-3-carbonitrile]
8.20	7.35	85.1	C[C@@H](Nc1ccc(-c2cc(OCC(C)(C)O)cn3ncc(C#N)c23)cn1)c1ccc(-n2cc(F)cn2)nc1 [Compound 5, (R)-4-(6-((1-(6-(4-fluoro-1H-pyrazol-1-yl)pyridin-3-yl)ethyl)amino)pyridin-3-yl)-6-(2-hydroxy-2-methylpropoxy)pyrazolo[1,5-a]pyridine-3-carbonitrile]
8.65	5.92	177	C[C@@H](c1ccc(-n2cc(F)cn2)nc1)N(C)c1ccc(-c2cc(OCC3CC3)cn3ncc(C#N)c23)cn1 [Compound 28, (S)-6-(cyclopropylmethoxy)-4-(6-((1-(6-(4-fluoro-1H-pyrazol-1-yl)pyridin-3-yl)ethyl)(methyl)amino)pyridin-3-yl)pyrazolo[1,5-a]pyridine-3-carbonitrile]

SMILES	pIC50 (RET)	pIC50 (VEGFR2)	GI50 (Ba/F3-KIF5B-RET cell) [nM]
CC(C)COc1cc(-c2ccc(N(C)[C@@H](C)c3ccc(-n4cc(F)cn4)nc3)nc2)c2c(C#N)cnn2c1 [Compound 33, (S)-4-(6-((1-(6-(4-fluoro-1H-pyrazol-1-yl)pyridin-3-yl)ethyl)(methyl)amino)pyridine-3-yl)-6-isobutoxypyrazolo[1,5-a]pyridine-3-carbonitrile]	8.52	< 5.30	413
CC(C)(O)COc1cc(-c2ccc(NCc3ccc4cccnc4c3)nc2)c2c(C#N)cnn2c1 [Compound 13]	8.29	6.87	50.8
